These results are taken from EP4745139A1, “COMPOUND FOR TREATING AND PREVENTING RESPIRATORY SYNCYTIAL VIRUS INFECTION DISEASES” (CSPC Zhongqi Pharmaceutical Technology (Shijiazhuang) Co., …, priority 2023, dated 2025).

A short description of data set [1]: Pharmacokinetic experiment in mice after intragastric administration (plasma and lung tissue, LC/MS/MS). The class given is in vivo. The note with it: ICR, mouse, intragastric administration at 20 mg/kg; for concentration at 6 h: lung, oral, read-out: Lung tissue drug concentration at 6 h; for half-life: plasma, po. On the procedure: The compounds of the present invention for intragastric administration were dissolved in a suitable solvent to form a clear solution or suspension.
Administration mode and dosage: The compounds of the present invention were administered intragastrically at 10 mg/kg or 20 mg/kg.
Number of animals: 3 ICR mice per group for intragastric administration.
Sample collection: For the intragastric administration group, 100 µL of blood was collected (using pre-heparinized 100 µL Capillary Blood Collection Tubes) from the orbital vein of mice at 0.25 h, 0.5 h, 1 h, 2 h, 4 h, and 6 h after administration and placed in heparin sodium anticoagulant tubes. Mice plasma samples were obtained by centrifugation at 3000 g for 10 minutes within 2 hours. For the intragastric administration group, clean blood was collected at 6-hour time point and then lung tissues were collected.
Sample treatment: Plasma and lung tissue homogenates were subjected to protein precipitation with methanol at a certain ratio, and the supernatant was taken and diluted with 50% methanol-water at a certain ratio for sample loading.
Sample detection: The drug concentration in plasma was detected by the LC/MS/MS method, and the drug-time curve was plotted. Pharmacokinetic parameters (such as T1/2(h)/AUC0-t) were calculated by non-compartmental model statistical moments to describe the pharmacokinetic behavior of the compounds in mice after administration.
Data processing: Pharmacokinetic parameters were calculated by WinNonlin.

In another data set the test system is RSV. Put plainly: In vivo pharmacodynamic assay: mouse RSV infection model, lung viral load by plaque assay. The note with it: lung tissue, Day 5. The arrangement: species or system BALB/c mice. On the procedure: The compound of the present invention was dissolved in a suitable solvent to form a clear solution or suspension for intragastric administration. • Animals: BALB/c mice, 6-weeks old, female. • Establishment of in vivo RSV infection model: Mice were inoculated intranasally with the virus on Day 0, with an inoculation dose of 3.5 × 10^6 p.f.u. per mouse. • Grouping of animals: Animals were divided into a vehicle control group and an administration group, with 5 animals in each group.
Administration mode and dosage: The compound of the present invention was administered intragastrically at 100 mg/kg or 50 mg/kg, or the vehicle used for the compound of the present invention was administered intragastrically. The administration volume was 10 mL/kg.
Experimental procedure: Mice were inoculated intranasally with the virus on Day 0 at an inoculation dose of 3.5 × 10^6 p.f.u. per mouse. Mice were continuously treated with the compound of the present invention from Day 0 to Day 4 for 5 days at a dose of 50 mg/kg, once daily, via intragastric administration, with an administration volume of 10 mL/kg; the first administration was conducted 1 hour before virus inoculation. Alternatively, mice were treated once with the compound of the present invention on Day 0 at a dose of 100 mg/kg, via intragastric administration, with an administration volume of 10 mL/kg; the first administration was conducted 1 hour before virus inoculation. On Day 5, mice were euthanized, and lung tissue samples were collected. Animals were observed daily from Day 0 to Day 5, and the body weight, health status, and survival status were recorded.
Sample processing: After lungs were collected, they were quickly frozen in the HBSS* solution at a 10-fold weight-to-volume ratio (w:v (g:mL) = 1:10), and stored in a -80°C refrigerator for plaque assay to detect viral load.
Sample detection: Viral load in lung tissues was detected by plaque assay. […]

Another data set relates to RSV strain A2. In words: Antiviral detection test against RSV strain A2 based on ELISA method (Hep-2 cells). In kind it is cell-based, Respiratory Syncytial Virus. The note with it: RSV A2 virus strain, Hep-2 cells, ELISA OD450. Here is the method: Test Example 1: Antiviral detection test of small molecules against RSV strain A2 based on ELISA method
• Source of cell line: Nanjing Kebai Biotechnology Co., Ltd. • Cell type: human laryngeal carcinoma epithelial cells Hep-2
• 96-well culture plate (Cat.No. 3610, Corning Costar); • Fetal bovine serum (Cat.No. 10099-141, GIBCO); • DMEM medium (Cat.No. 11995500BT, GIBCO); • Envision 2104 microplate reader.
• 1. Day 1: The Hep-2 cells were seeded into a 96-well plate at a density of 1×10^4 cells/well; • 2. Day 2: • A. Compound dilution: The compound in the first well was diluted to 9 µM, and 3-fold gradient dilution was performed, with a total of 10 gradients; • B. The Hep-2 cell plate prepared on Day 1 was taken out from the incubator, the supernatant was discarded, and 100 PFU/well/50 µL of the RSV A2 virus was added to each well. The plate was stood at 37°C in a 5% CO2 incubator for 2 hours, the supernatant was aspirated and discarded, and then 100 µL of the gradient-diluted compound or DMEM maintenance medium containing 2% FBS was added to each well; • 3. Day 5: • A. Add fixative: The gradient-diluted compound or medium was discarded from the wells, and 100 µL/well of fixative (4% paraformaldehyde) was added. The plate was stood at room temperature for 10 minutes, and then was washed once with 250 µL PBS; • B. 100 µL/well of a blocking solution was added, and the plate was incubated at 37°C in a 5% CO2 incubator for 30 minutes; • C. After incubation, the detection antibody (Anti RSV Fpro) was added at 0.3 µg/50 µL/well (6 µg/mL), and the plate was incubated at 37°C in a 5% CO2 incubator for 1 hour; • D. After incubation, the HRP secondary antibody was added (diluted 10,000-fold with 0.2% BSA), and the plate was incubated at 37°C in a 5% CO2 incubator for 1 hour; • E. After incubation, the wells were washed for 4 times with PBST, 250 µL/well, each washing was allowed to stand for 5 minutes, and the liquid in the wells was shaken off after completion of the washing; • F. 100 µL/well of a development solution was added, the plate was incubated at room temperature in the dark for 20 minutes, and 50 µL/well of a reaction termination solution was added. The plate was tapped gently to mix the solutions, and the absorbance at 450 nm was measured using the microplate reader. • 4. Data analysis • Inhibition rate of the compound against the virus = 100% - (SC - CC)/(VC - CC) × 100% • SC: OD450 value of the sample (cells + test compound + virus) • CC: OD450 value of the normal growing cell control (cells) • VC: OD450 value of the virus growth control (cells + virus)
The software Graphpad Prism 6 was used, and the calculation formula XY-analysis/Nonlinear regression (curve fit)/Dose response-Inhibition/log (inhibition) vs. response-Variable slope (four parameters) was adopted to fit the IC50 curve and calculate the IC50 value.
(An ELISA detects its analyte on a solid surface through an enzyme-linked reagent.)

The target of data set [2] is human potassium ion channel (hERG) (Homo sapiens, UniProt Q12809).
Sequence of human potassium ion channel (hERG) (Q12809 whole entry): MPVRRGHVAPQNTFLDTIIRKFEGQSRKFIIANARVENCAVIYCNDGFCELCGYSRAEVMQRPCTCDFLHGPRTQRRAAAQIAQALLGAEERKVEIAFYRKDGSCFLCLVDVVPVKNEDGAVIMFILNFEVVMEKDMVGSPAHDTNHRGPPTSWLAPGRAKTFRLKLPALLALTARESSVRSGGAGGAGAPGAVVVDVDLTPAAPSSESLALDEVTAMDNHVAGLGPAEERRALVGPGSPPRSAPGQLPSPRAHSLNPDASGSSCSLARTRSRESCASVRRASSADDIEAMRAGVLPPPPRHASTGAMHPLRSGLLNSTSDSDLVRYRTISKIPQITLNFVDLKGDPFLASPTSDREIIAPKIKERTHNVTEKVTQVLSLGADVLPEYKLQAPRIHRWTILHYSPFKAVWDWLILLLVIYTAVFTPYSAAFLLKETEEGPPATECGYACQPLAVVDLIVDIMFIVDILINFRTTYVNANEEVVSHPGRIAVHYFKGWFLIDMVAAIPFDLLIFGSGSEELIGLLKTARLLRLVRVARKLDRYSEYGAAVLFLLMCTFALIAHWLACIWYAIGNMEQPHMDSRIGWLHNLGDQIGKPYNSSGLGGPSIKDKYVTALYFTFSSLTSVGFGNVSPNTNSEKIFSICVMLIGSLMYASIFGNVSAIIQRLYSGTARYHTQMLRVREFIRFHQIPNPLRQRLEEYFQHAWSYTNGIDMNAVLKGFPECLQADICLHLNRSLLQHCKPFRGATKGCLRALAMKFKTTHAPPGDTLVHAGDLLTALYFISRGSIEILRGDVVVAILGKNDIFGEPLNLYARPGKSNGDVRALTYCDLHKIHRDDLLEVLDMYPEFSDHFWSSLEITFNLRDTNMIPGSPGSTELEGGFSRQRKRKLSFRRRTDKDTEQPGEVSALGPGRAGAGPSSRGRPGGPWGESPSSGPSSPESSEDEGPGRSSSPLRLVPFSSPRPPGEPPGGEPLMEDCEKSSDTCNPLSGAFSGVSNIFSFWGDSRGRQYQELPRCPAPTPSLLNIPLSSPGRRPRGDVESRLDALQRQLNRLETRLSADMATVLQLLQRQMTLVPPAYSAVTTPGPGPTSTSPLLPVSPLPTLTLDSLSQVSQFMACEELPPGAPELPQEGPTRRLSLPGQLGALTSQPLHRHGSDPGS
Protocol: Experimental equipment: Electrophysiological detection was performed using the fully automated patch clamp QPatch 48 X (Sophion) device.
Experimental procedure: The prepared cells were placed in the centrifuge chambers of the QPatch workbench, the cells were washed by the centrifugation/suspension method for multiple times to replace the cell culture medium with an extracellular solution. One MTP-96 plate was taken out and placed at the MTP source position. The QPlate chip was taken out and then the QPlate was placed at the QPlate source position. The robotic arm scanned the MTP-96 plate and the barcodes of the QPlate chip, and grabbed them to the measurement station. Intracellular and extracellular solutions were aspirated from the liquid pool and added to the intracellular solution pool and the cell and test substance pool of the QPlate chip, respectively. At the measurement station, all measurement sites on the QPlate underwent initial quality control. […] The current detected in each cell in the extracellular solution without the compound was used as its own control group, and the detection was independently repeated on two cells. […]
Data processing: The IC50 values were calculated using GraphPad Prism software.

The term half-life denotes the time needed for the level to fall by half in the phase considered. A higher half-life goes with slow loss. `Cc1ccc2nc(N3CCS(=O)(=O)c4ccccc4C3)nc(NCC3(N)COC3)c2c1` [AK0529, reference compound]: in data set [1], the concentration at 6 h turned out to be 1210 ng/g and the half-life is 1.55 h. Further, in the data set with RSV (50 mpk, BID, 5 days administration), the “log (RSV Viral Load) Mean” value amounted to 3.06.
Usually IC50 stands for the concentration that gives 50% inhibition. Read a low IC50 as greater potency in that assay. For the compound `Cc1ccc2nc(N3CCS(=O)(=NC4CC4)c4ccccc4C3)nc(N3CC[C@H](N)C3)c2c1` (stereo partly shown) [Example 4-11], the concentration at 6 h in data set [1] worked out at 22700 ng/g. The compound further gave a half-life in data set [1] of 6.91 h. Also, the IC50 with RSV strain A2 (human respiratory syncytial virus) was below 10 nM. The “log (RSV Viral Load) Mean” value with RSV (50 mpk, QD, 5 days administration, value is the lower limit of detection for viral load) was determined as 2.30°; in the data set on RSV (100 mpk, QD, administration once) it was 2.48.
As to `Cc1ccc2nc(N3CCS(=O)(=NCC4CCO4)c4ccccc4C3)nc(N3CC[C@H](N)C3)c2c1` (stereo partly shown) [Example 4-61], in data set [2], the “IC50 of the Compound of the present invention /AK0529 IC50” value is given as above 1. Besides, the IC50 in the data set with RSV strain A2 was below 10 nM.
